For test [1], the target named is reuptake of dopamine in synaptosomes of rat forebrain (Rattus norvegicus, UniProt P23977). In words: biochemical.
Method: Fresh whole forebrain (at 0-4°C) from male Wistar rats (150-200 g) is homogenized in a glass homogenizer with a Teflon pestle in 20 x volumes 0.32M sucrose. The homogenate is centrifuged at 1000 x g (∼2900 rpm) for 10 min. The pellet is discarded and the supernatant is used for uptake assays.
The samples are thoroughly mixed and incubated 10 min at 37°C followed by 2 min at 0°C. After incubation the samples are poured directly onto Whatman GF/C glass fibre filters under suction and immediately washed with 2 x 5 ml ice-cold 0.9% saline (NaCl) buffer. To the filter is added 3 ml of scintillation fluid, and the amount of radioactivity on the filters is determined by conventional liquid scintillation counting.
The test system of test [2] is dopamine releasing properties. The test can be described thus: dopamine releasing properties (no method described). The note with it: in contrast to Win 35,428 and cocaine.
Test [3] deals with haloperidol-induced catalepsy. The test can be described thus: animal or person. The following applies: Rattus norvegicus, read-out: Minimum effective dose (peroral administration).
From the text: The principle behind the haloperidol catalepsy test relates to the fact that the drug haloperidol (Serenase®) induces a receptor blockade of post synaptic dopamine receptors within the dopamine innervated corpus striatum of the rat brain. Following the blockade of active dopamine neurotransmission of the striatum a state of rigid immobility is induced, during which the rat can be placed in various totally abnormal immobile postures involving the forelegs and the whole body.
The day before testing, the rats weighing 200-250 g are housed 2 and 2 together in standard macrolon cages.
The testing for the immobile catalepsy syndrome includes 4 tests performed in the following consecutive order: • 1) a vertical wire netting (40x40 cm high).The meshes (openings) of the nettings are approximately 1x2cm. • 2) a horizontal bar 9 cm above the floor • 3) a 9 cm high block (bar) • 4) a 3 cm high block (cork)
The rats were scored for the immobile cataleptic syndrome every 15 min in all 4 tests starting 15 min after the haloperidol injection. The intensity of catalepsy was tested during 10 sec in all tests and evaluated according to a criteria of 10 sec of total immobility for a score of 2.
The rat was placed in the middle of the vertical wire netting, then on the horizontal bar in an extended position with support by both the forelegs on the bar. […]

Structures can show the parent of a compound that is named as a salt. A value given as a limit tells only on which side of the number the result lay.

reuptake of dopamine in synaptosomes of rat forebrain, sequence (P23977 whole entry): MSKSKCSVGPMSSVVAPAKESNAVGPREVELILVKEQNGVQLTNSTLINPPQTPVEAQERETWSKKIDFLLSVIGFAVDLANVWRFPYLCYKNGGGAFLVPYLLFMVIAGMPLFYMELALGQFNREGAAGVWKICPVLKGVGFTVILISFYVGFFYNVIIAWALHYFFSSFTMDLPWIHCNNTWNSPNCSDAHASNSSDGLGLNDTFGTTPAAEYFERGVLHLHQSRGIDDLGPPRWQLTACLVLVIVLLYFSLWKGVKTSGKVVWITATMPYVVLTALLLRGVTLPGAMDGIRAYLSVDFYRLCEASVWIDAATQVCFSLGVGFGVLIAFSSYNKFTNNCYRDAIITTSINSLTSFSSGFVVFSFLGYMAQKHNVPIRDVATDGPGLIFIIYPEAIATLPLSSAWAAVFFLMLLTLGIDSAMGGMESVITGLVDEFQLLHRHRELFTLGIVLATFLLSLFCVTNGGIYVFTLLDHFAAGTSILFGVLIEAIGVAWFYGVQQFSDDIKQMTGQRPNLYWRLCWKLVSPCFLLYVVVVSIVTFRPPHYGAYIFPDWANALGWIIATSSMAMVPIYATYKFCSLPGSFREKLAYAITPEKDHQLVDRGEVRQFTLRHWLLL

By IC50 is commonly meant the midpoint of a concentration-inhibition curve. Turning to `CN1[C@H]2CC[C@@H]1[C@H](c1nc(-c3ccccc3)no1)[C@@H](c1ccc3ccccc3c1)C2` [(1R,2R,3S)-2-(3-Phenyl-1,2,4-oxadiazol-5-yl)-3-(2-naphthyl)tropane, hydrochloride], the IC50 in test [1] came to 0.54 µM.

In turn, `CN1[C@H]2CC[C@@H]1[C@H](c1nc(-c3ccccc3)no1)[C@@H](c1ccc(Cl)cc1)C2` [(1R,2R,3S)-2-(3-Phenyl1,2,4-oxadiazol-5-yl)-3-(4-chlorophenyl)-tropane, hydrochloride] returned an IC50 in test [1] of 0.33 µM.

For `COC(=O)[C@@H]1[C@@H](c2ccc(F)cc2)C[C@@H]2CC[C@H]1N2C` [trans isomer of Win 35,428, (1R,2R,3S)-2-carbomethoxy-3-(4-fluorophenyl)tropane], the dopamine releasing properties result in test [2] was “essentially free of dopamine releasing properties”.

In test [1], `Cc1ccc([C@H]2C[C@@H]3CC[C@H]([C@@H]2c2nc(-c4ccccc4)no2)N3C)cc1` [(1R,2R,3S)-2-(3-Phenyl-1,2,4-oxadiazol-5-yl)-3-(4-methylphenyl)-tropane, hydrochloride] gave an IC50 of 0.96 µM.

For `Cc1noc([C@@H]2[C@@H](c3ccc(Cl)cc3)C[C@@H]3CC[C@H]2N3C)n1.Cl` [(1R,2R,3S)-2-(3-Methyl-1,2,4-oxadiazol-5-yl)-3-(4-chlorophenyl)-tropane, hydrochloride], the minimal effective dose in test [3] is greater than 1 mg/kg.
